The results in this text go back to ChEMBL document CHEMBL1201862, “PubChem BioAssay data set” (2004).

Active and inactive are the calls of the source.

For assay [1], the system named is Streptococcus sp. 'group A'. The assay can be described thus: growth inhibition of control SK(-) GAS strain, dose response, counter-screen for streptokinase expression inhibitor project, luminescence, kanamycin, BacTiterGlo, confirmation (AID 1900). Format: functional, organism-based. (In general: The purpose of a counterscreen is to sort out artefacts and off-target activity.)

A short description of assay [2]: C. albicans growth with fluconazole, confirmation, fluorescence, retest (AID 2467). The class given is functional, cell-based.
For another assay, the system named is Streptococcus. The assay can be described thus: Group A Streptococcus viability loss, dose response, counter-screen for streptokinase expression inhibitor project, luminescence, BacTiterGlo (AID 1915).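 Also: potency for reduction of bacterial viability or growth.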 Format: functional, organism-based.
Assay [3] has as its target Heat shock protein HSP 90-alpha (Homo sapiens, UniProt P07900). Format: functional, organism-based.
Assay [4] addresses ATP-dependent molecular chaperone HSP82 (Candida albicans (strain WO-1) (Yeast), UniProt C4YTQ8). Kind of assay: loss of DOC-induced GRE-beta-galactosidase reporter signal, dose response, Hsp90 inhibitor project, S. cerevisiae, luminescence (AID 2400).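 Also: beta-galactosidase luminescence from glucocorticoid response element reporter as proxy for Hsp90 function; inhibitor potency where signal loss means Hsp90 inhibition.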 Format: functional, cell-based.
Assay [5] addresses Ribosomal protein S6 kinase alpha-3 (Homo sapiens, UniProt P51812). The class given is functional.
In assay [6] the target is Serine/threonine-protein kinase PLK3 (Homo sapiens, UniProt Q9H4B4). Format: functional.
Assay [7] has as its target RAC-gamma serine/threonine-protein kinase (Homo sapiens, UniProt Q9Y243). Format: functional.
Assay [8] has as its target Serine/threonine-protein kinase PLK4 (Homo sapiens, UniProt O00444). The class given is functional.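 Also: PLK4 measured as one member of a kinome-wide kinase profiling panel.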
Assay [9] has as its target Calcium/calmodulin-dependent protein kinase type II subunit gamma (Homo sapiens, UniProt Q13555). The class given is functional.
For assay [10], the target named is Cyclin-dependent kinase 2 (Homo sapiens, UniProt P24941). The class given is functional.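 Also: CDK2 measured as one member of a broad kinome profiling panel.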
For assay [11], the target named is MAP kinase-activated protein kinase 5 (Homo sapiens, UniProt Q8IW41). Format: functional.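 Also: measured as one member of a kinome panel.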
The target of assay [12] is MAP kinase-activated protein kinase 2 (Homo sapiens, UniProt P49137). Format: functional.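 Also: measured as one member of a kinome-wide kinase panel.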
Assay [13] concerns the target Mast/stem cell growth factor receptor Kit (Homo sapiens, UniProt P10721). The class given is functional.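 Also: KIT entry within a kinase panel assay.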
The target in assay [14] is Serine/threonine-protein kinase PAK 1 (Homo sapiens, UniProt Q13153). Format: functional.
The target in assay [15] is Tyrosine-protein kinase ITK/TSK (Homo sapiens, UniProt Q08881). The class given is functional.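 Also: affinity for ITK measured as one member of a broad kinase panel profiling binding across the kinome.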
In assay [16] the target is Proto-oncogene tyrosine-protein kinase ROS (Homo sapiens, UniProt P08922). Format: functional.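 Also: ROS1 tested as one member of a kinome-wide kinase panel.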
Assay [17] concerns the target MAP/microtubule affinity-regulating kinase 3 (Homo sapiens, UniProt P27448). The class given is functional.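 Also: MARK3 affinity measured as one member of a kinome panel.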
Assay [18] concerns the target Mitogen-activated protein kinase kinase kinase 20 (Homo sapiens, UniProt Q9NYL2). The class given is functional.
Assay [19] has as its target Tyrosine-protein kinase Srms (Homo sapiens, UniProt Q9H3Y6). Format: functional.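 Also: SRMS measured as one member of a kinome-wide kinase profiling panel.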
Assay [20] deals with Cyclin-dependent kinase 5 (Homo sapiens, UniProt Q00535). The class given is functional.
The next assay addresses Ephrin type-A receptor 2 (Homo sapiens, UniProt P29317). Format: functional.
In assay [21] the target is Mitogen-activated protein kinase 1 (Homo sapiens, UniProt P28482). Format: functional.
The target in assay [22] is Protein-tyrosine kinase 6 (Homo sapiens, UniProt Q13882). The class given is functional.
Assay [23] deals with Cyclin-dependent kinase 19 (Homo sapiens, UniProt Q9BWU1). Kind of assay: Navigating the Kinome. Panel member name: CDC2L6. The class given is functional.
Assay [24] deals with Serine/threonine-protein kinase pim-2 (Homo sapiens, UniProt Q9P1W9). The class given is functional.
The target in assay [25] is 3-phosphoinositide-dependent protein kinase 1 (Homo sapiens, UniProt O15530). The class given is functional.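 Also: value comes from the Navigating the Kinome panel, PDPK1 member.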
The target in assay [26] is Serine/threonine-protein kinase PLK1 (Homo sapiens, UniProt P53350). Format: functional.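 Also: PLK1 measured as one member of a kinome-wide profiling panel.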
Assay [27] has as its target Receptor tyrosine-protein kinase erbB-4 (Homo sapiens, UniProt Q15303). Format: functional.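 Also: ERBB4 member of a kinome-wide kinase profiling panel.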
Assay [28] deals with Mitogen-activated protein kinase 12 (Homo sapiens, UniProt P53778). The class given is functional.
Assay [29] has as its target Lymphokine-activated killer T-cell-originated protein kinase (Homo sapiens, UniProt Q96KB5). The class given is functional.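 Also: value comes from a kinase panel screen in which TOPK was one of the panel members.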
Assay [30] concerns the target Serine/threonine-protein kinase BRSK1 (Homo sapiens, UniProt Q8TDC3). The class given is functional.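 Also: measured within a kinome-wide kinase panel, with the target listed as KIAA1811.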
The target of a further assay is T1, Protein RecA (Mycobacterium tuberculosis, UniProt P9WHJ3).
T1 sequence (P9WHJ3 whole entry): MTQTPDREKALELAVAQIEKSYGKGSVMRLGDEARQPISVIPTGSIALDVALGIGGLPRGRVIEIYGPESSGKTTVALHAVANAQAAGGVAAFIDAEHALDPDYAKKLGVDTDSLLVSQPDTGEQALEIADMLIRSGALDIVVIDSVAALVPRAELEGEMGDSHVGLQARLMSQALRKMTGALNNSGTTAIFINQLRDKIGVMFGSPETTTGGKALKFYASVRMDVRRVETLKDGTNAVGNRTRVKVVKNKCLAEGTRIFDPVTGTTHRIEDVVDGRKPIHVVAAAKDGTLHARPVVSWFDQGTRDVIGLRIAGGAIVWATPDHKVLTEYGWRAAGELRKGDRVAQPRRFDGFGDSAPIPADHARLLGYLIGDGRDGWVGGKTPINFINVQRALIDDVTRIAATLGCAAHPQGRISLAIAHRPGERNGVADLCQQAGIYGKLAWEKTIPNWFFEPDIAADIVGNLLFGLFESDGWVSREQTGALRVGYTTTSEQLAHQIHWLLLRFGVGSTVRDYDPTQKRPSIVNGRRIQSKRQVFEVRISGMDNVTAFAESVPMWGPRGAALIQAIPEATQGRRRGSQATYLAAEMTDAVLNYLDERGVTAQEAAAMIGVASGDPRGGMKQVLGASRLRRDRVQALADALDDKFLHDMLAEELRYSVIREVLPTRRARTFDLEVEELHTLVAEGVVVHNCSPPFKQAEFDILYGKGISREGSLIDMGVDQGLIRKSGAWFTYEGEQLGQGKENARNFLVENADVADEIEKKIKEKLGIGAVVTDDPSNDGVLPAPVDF
The assay can be described thus: Fluorescence Cell-Free Homogeneous Dose Retest to Identify Inhibitors of RecA-Intein Splicing Activity. [Related pubchem assays (depositor defined):AID2097, AID2223, AID489010, AID492950]. Format: functional.

Chain of Mitogen-activated protein kinase 1 (P28482 whole entry): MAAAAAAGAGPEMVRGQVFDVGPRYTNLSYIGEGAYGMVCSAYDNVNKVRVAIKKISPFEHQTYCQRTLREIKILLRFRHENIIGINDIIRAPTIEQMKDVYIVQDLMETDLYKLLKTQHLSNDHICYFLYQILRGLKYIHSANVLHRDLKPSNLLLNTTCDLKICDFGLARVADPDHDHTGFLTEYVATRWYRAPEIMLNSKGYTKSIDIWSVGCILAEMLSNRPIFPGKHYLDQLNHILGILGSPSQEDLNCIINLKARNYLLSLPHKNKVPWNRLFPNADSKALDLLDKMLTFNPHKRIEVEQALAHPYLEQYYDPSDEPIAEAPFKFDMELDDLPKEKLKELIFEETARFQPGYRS
Chain of ATP-dependent molecular chaperone HSP82 (C4YTQ8 whole entry): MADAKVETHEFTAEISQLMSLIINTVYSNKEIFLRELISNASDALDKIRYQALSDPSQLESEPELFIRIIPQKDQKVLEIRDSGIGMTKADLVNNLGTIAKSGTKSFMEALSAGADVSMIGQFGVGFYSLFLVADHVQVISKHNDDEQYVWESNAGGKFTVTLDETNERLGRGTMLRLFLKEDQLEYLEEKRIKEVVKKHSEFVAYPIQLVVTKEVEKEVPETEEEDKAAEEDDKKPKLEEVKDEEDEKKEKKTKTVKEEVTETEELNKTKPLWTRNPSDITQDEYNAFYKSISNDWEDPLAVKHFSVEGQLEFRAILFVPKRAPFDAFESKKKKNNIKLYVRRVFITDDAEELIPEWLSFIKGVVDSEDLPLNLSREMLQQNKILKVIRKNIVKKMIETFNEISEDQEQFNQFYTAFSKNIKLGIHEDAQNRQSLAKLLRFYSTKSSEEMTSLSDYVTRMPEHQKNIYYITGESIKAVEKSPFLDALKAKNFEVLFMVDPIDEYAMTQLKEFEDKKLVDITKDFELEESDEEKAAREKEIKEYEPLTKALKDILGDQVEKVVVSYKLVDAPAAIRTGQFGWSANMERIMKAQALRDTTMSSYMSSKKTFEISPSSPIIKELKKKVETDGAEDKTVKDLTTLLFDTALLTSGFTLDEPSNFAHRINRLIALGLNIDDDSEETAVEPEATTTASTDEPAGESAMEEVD
Chain of RAC-gamma serine/threonine-protein kinase (Q9Y243 whole entry): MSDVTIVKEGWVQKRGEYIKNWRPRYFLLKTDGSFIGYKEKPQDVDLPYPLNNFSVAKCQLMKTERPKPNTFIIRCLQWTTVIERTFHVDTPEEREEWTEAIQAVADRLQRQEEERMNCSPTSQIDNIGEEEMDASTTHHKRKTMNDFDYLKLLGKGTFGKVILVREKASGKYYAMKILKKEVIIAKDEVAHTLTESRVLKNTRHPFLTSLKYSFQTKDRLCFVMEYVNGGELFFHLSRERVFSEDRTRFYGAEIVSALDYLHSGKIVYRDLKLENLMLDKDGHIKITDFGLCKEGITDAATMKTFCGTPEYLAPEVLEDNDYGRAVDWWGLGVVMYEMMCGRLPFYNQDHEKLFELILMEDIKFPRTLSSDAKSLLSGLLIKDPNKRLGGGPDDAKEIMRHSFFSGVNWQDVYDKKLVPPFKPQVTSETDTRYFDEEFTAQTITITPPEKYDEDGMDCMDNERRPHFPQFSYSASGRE
Chain of 3-phosphoinositide-dependent protein kinase 1 (O15530 whole entry): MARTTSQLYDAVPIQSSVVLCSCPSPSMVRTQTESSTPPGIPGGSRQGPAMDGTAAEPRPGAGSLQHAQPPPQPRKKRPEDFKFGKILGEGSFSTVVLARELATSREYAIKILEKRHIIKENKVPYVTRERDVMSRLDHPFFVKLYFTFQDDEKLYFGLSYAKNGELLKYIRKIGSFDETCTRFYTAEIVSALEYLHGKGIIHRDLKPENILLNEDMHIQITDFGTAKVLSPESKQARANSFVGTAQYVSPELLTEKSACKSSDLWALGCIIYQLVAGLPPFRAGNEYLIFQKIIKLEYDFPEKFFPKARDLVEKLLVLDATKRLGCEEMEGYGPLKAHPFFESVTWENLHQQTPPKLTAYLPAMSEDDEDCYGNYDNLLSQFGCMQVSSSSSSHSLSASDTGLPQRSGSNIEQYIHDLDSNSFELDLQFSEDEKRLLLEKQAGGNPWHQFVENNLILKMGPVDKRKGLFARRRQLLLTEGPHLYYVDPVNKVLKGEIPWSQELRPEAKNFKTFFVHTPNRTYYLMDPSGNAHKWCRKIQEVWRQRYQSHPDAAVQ
Chain of Serine/threonine-protein kinase PLK1 (P53350 whole entry): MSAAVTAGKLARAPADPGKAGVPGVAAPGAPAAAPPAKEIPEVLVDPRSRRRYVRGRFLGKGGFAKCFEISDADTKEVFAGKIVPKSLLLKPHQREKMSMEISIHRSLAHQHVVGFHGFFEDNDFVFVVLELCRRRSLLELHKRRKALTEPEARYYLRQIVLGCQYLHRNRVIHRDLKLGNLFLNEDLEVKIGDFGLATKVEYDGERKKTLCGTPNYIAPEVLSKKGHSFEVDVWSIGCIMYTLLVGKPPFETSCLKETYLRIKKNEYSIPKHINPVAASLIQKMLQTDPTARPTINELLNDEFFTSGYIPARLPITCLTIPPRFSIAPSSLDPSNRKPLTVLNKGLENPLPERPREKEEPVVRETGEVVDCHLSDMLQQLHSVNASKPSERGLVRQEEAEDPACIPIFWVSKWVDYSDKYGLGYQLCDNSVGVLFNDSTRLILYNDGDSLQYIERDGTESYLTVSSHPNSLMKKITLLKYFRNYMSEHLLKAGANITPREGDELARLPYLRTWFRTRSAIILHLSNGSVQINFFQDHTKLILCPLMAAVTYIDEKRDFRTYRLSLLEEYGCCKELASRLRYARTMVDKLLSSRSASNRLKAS
Chain of Serine/threonine-protein kinase PLK4 (O00444 whole entry): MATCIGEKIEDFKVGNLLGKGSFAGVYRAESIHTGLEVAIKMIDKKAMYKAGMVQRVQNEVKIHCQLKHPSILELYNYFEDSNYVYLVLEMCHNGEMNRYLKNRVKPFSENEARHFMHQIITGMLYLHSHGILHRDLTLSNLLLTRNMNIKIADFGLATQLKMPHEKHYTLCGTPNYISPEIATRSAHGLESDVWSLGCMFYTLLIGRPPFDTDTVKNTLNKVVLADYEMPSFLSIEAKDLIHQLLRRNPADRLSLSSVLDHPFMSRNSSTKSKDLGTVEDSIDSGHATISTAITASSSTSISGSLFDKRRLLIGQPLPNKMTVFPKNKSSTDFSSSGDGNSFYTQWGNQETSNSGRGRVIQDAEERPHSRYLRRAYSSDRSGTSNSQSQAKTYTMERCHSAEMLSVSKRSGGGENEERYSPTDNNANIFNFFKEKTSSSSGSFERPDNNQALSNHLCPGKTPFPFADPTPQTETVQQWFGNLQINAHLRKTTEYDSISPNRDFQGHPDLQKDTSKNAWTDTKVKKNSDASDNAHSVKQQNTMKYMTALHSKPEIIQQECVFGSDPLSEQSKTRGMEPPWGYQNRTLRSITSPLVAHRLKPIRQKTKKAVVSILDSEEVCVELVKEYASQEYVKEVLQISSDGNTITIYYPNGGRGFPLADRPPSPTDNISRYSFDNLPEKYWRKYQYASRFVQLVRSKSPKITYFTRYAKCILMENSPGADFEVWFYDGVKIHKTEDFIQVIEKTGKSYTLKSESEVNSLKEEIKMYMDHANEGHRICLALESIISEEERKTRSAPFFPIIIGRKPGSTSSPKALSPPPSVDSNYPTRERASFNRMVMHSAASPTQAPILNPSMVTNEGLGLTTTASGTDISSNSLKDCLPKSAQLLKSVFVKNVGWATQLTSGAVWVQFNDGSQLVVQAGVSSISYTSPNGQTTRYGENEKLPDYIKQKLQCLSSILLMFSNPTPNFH
Chain of Tyrosine-protein kinase Srms (Q9H3Y6 whole entry): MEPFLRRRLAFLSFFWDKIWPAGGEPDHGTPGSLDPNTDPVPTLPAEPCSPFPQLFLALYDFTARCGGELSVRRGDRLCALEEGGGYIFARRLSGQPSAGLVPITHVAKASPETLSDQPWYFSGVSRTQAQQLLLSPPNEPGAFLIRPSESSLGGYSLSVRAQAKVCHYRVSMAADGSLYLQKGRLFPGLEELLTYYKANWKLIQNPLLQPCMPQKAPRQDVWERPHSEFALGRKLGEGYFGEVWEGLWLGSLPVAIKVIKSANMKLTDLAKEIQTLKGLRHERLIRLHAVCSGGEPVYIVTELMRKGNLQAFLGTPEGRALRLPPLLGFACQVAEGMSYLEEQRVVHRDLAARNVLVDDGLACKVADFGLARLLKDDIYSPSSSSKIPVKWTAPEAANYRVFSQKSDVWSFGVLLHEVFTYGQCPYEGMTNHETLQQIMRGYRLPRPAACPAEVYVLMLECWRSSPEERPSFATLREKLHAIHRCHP
Chain of Serine/threonine-protein kinase PLK3 (Q9H4B4 whole entry): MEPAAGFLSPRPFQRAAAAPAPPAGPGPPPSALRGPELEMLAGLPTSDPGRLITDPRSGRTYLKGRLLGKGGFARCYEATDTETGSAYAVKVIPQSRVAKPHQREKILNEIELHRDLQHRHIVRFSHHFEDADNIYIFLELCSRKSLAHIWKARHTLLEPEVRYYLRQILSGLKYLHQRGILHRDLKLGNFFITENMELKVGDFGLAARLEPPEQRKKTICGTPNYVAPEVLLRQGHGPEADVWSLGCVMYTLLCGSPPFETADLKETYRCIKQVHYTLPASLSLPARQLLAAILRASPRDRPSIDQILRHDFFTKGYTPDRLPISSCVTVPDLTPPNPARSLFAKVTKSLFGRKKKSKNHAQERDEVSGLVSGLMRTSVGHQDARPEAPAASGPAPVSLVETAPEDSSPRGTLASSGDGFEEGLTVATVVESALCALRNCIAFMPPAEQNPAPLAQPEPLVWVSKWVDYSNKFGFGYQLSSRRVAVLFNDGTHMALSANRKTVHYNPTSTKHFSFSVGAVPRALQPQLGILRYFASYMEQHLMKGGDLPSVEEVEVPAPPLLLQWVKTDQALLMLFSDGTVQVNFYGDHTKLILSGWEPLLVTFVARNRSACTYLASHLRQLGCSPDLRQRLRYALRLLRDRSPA

On to `Cc1cc(NC(c2ccc(Cl)cc2)c2ccc3cccnc3c2O)no1` (stereo not drawn), for which the EC50 in assay [1] was 416 nM (active); in assay [2] it was 741 nM (active); in the assay on Streptococcus, 15000 nM (active); in assay [4] it was 20700 nM (active). For the same molecule, the concentration at half-maximal activity (AC50) in assay [3] was 3870 nM (active).
`CS(=O)(=O)N(Cc1ccc2[nH]c(=O)c3cccn3c2c1)C1CC1`: the Ki in [5] is > 2000 nM (inactive); in [6], 15.8 nM (active); in assay [7] it was 79.4 nM (active); in assay [8], 251 nM (active); in [9] it was 251 nM (active); in [10], > 7940 nM (inactive). Also, the inhibition constant (Ki) in assay [11] is 10 nM (active); in assay [12], 79.4 nM (active); in assay [13] it was 251 nM (active); in assay [14], 3160 nM (active); in assay [15] it was > 1580 nM (inactive); in assay [16], 50.1 nM (active). The Ki in assay [17] is > 6310 nM (inactive); in [18] it was 251 nM (active); in assay [19], 631 nM (active); in assay [20], > 6310 nM (inactive); on Ephrin type-A receptor 2, > 3160 nM (inactive); in assay [21], > 7940 nM (inactive). The Ki is 2000 nM (active) in assay [22]; > 100000 nM (inactive) in assay [23]; > 1580 nM (inactive) in [24]; 79.4 nM (active) in assay [25]; 10 nM (active) in assay [26]; > 3980 nM (inactive) in [27]. Moreover, the figures for the inhibition constant Ki in assay [28], in assay [29] and in assay [30] were 316 nM (active), 2000 nM (active) and 200 nM (active), respectively.
For the molecule `OCC[n+]1c2ccccc2nc2ccc(N3CCOCC3)cc21`, the EC50 at Protein RecA is > 120000 nM (inconclusive).

For orientation: EC50 means the concentration that produces a half-maximal response. As a reminder, the AC50 is the concentration at which the activity in the assay is half-maximal. In general, Ki refers to the dissociation constant of the complex between target and ligand, obtained from inhibition or displacement.
